Data on 31 compounds can be found in patent US9663496B2, “AMPK-activating heterocyclic compounds and methods for using the same” (Rigel Pharmaceuticals, Inc., priority 2010, dated 2017).

The structures appear in SMILES notation.

In the test the target is AMPK. Put plainly: AMPK activation, enzyme-linked immunosorbent assay. The class given is biochemical. To be noted: EC50 for AMPK activation, ELISA. The gist of the method:
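Activation by each compound is measured using a conventional commercial immunoassay kit.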
Consider `COc1ccc(CN2CCC(NC(=O)c3ccc(C(=O)N4CCN(Cc5ccc(C#N)cc5)CC4)cn3)CC2)cc1` [Compound 285, 5-(4-(4-cyanobenzyl)piperazine-1-carbonyl)-N-(1-(4-methoxybenzyl)piperidin-4-yl)picolinamide], for which the EC50 was under 500 nM.

In the case of `COc1ccc(C(=O)C2CCN(C(=O)c3ccc(C(=O)NC4CCN(Cc5cc(F)cc(F)c5)CC4)nc3)CC2)cc1` [Compound 287, N-(1-(3,5-difluorobenzyl)piperidin-4-yl)-5-(4-(4-methoxybenzoyl)piperidine-1-carbonyl)picolinamide], the EC50 was under 500 nM.

Take `O=C(NC1CCN(Cc2cc(F)cc(F)c2)CC1)c1ccc(C(=O)N2CCC(C(=O)c3ccc(F)cc3)CC2)cn1` [Compound 288, N-(1-(3,5-difluorobenzyl)piperidin-4-yl)-5-(4-(4-fluorobenzoyl)piperidine-1-carbonyl)picolinamide]: the concentration giving a half-maximal response (EC50) was under 500 nM.

`N#Cc1ccc(OC2CCN(C(=O)c3ccc(C(=O)NC4CCN(Cc5cc(F)cc(F)c5)CC4)nc3)CC2)cc1` [Compound 289, 5-(4-(4-cyanophenoxy)piperidine-1-carbonyl)-N-(1-(3,5-difluorobenzyl)piperidin-4-yl)picolinamide] showed a concentration giving a half-maximal response (EC50) of under 500 nM.

As to `CC(C)(C)OC(=O)NCCCc1cc(C(=O)N2CCN(Cc3ccc(F)cc3)CC2)cnc1C(=O)NC1CCN(Cc2ccc(C#N)cc2)CC1` [Compound 290, tert-butyl 3-(2-(1-(4-cyanobenzyl)piperidin-4-ylcarbamoyl)-5-(4-(4-fluorobenzyl)piperazine-1-carbonyl)pyridin-3-yl)propylcarbamate], the EC50 is under 500 nM.

`N#Cc1ccc(CN2CCC(NC(=O)c3ncc(C(=O)N4CCN(Cc5ccc(F)cc5)CC4)cc3CCCNC(=O)CCOCCOCCOCCOCCNC(=O)CCCC[C@@H]3SC[C@@H]4NC(=O)N[C@@H]43)CC2)cc1` [Compound 291, N-(1-(4-cyanobenzyl)piperidin-4-yl)-3-(5,21-dioxo-25-((3aS,4S,6aR)-2-oxohexahydro-1H-thieno[3,4-d]imidazol-4-yl)-8,11,14,17-tetraoxa-4,20-diazapentacosyl)-5-(4-(4-fluorobenzyl)piperazine-1-carbonyl)picolinamide] displayed a concentration for a half-maximal effect (EC50) of under 500 nM.

`O=C(NC1CCN(Cc2cc(F)cc(F)c2)CC1)c1ccc(C(=O)N2CC[C@H](Oc3ccc(F)cc3)C2)cn1` [Compound 292, N-(1-(3,5-difluorobenzyl)piperidin-4-yl)-5-((S)-3-(4-fluorophenoxy)pyrrolidine-1-carbonyl)picolinamide] yielded a concentration for a half-maximal effect (EC50) of under 500 nM.

As to `O=C(NC1CCN(Cc2cc(F)cc(F)c2)CC1)c1ccc(C(=O)N2CCC(Oc3ccc(C(F)(F)F)cc3)CC2)cn1` [Compound 294, N-(1-(3,5-difluorobenzyl)piperidin-4-yl)-5-(4-(4-(trifluoromethyl)phenoxy)piperidine-1-carbonyl)picolinamide], the EC50 was under 500 nM.

Compound `COc1ccc(OC2CCN(C(=O)c3ccc(C(=O)NC4CCN(Cc5cc(F)cc(F)c5)CC4)nc3)CC2)cc1` [Compound 296, N-(1-(3,5-difluorobenzyl)piperidin-4-yl)-5-(4-(4-methoxyphenoxy)piperidine-1-carbonyl)picolinamide] gave an EC50 of under 500 nM.

On to `O=C(NC1CCN(Cc2cc(F)cc(F)c2)CC1)c1ccc(C(=O)N2CCC(Oc3ccc(F)c(F)c3)CC2)cn1` [Compound 297, N-(1-(3,5-difluorobenzyl)piperidin-4-yl)-5-(4-(3,4-difluorophenoxy)piperidine-1-carbonyl)picolinamide], for which the EC50 was under 500 nM.

`O=C(NC1CCN(Cc2cc(F)cc(F)c2)CC1)c1ccc(C(=O)N2CCC(C(=O)c3ccc(F)c(F)c3)CC2)cn1` [Compound 298, 5-(4-(3,4-difluorobenzoyl)piperidine-1-carbonyl)-N-(1-(3,5-difluorobenzyl)piperidin-4-yl)picolinamide]: the 50% effective concentration (EC50) is under 500 nM.

Take `COc1ccc(C(=O)C2CCN(C(=O)c3ccc(C(=O)N[C@H]4CC[C@@H](Oc5cc(F)cc(F)c5)CC4)nc3)CC2)cc1` [Compound 300, N-((cis)-4-(3,5-difluorophenoxy)cyclohexyl)-5-(4-(4-methoxybenzoyl)piperidine-1-carbonyl)picolinamide]: the half-maximal effective concentration (EC50) was under 500 nM.

On to `N#Cc1ccc(CN2CCC(NC(=O)c3ccc(N4CCC(Oc5ccc(C(F)(F)F)cc5)CC4)cn3)CC2)cc1` [Compound 301, N-(1-(4-cyanobenzyl)piperidin-4-yl)-5-(4-(4-(trifluoromethyl)phenoxy)piperidin-1-yl)picolinamide], for which the EC50 is under 500 nM.

In the case of `COc1ccc(C(=O)C2CCN(c3ccc(C(=O)NC4CCN(Cc5ccc(C#N)cc5)CC4)nc3)CC2)cc1` [Compound 302, N-(1-(4-cyanobenzyl)piperidin-4-yl)-5-(4-(4-methoxybenzoyl)piperidin-1-yl)picolinamide], the EC50 was under 500 nM.

Turning to `N#Cc1ccc(OC2CCN(C(=O)c3ccc(C(=O)N[C@H]4CC[C@@H](Oc5ccc(F)cc5)CC4)nc3)CC2)cc1` [Compound 303, 5-(4-(4-cyanophenoxy)piperidine-1-carbonyl)-N-((cis)-4-(4-fluorophenoxy)cyclohexyl)picolinamide], the 50% effective concentration (EC50) was under 500 nM.

The compound `O=C(N[C@H]1CC[C@@H](Oc2ccc(F)cc2)CC1)c1ccc(C(=O)N2CCC(C(=O)c3ccc(F)cc3)CC2)cn1` [Compound 304, 5-(4-(4-fluorobenzoyl)piperidine-1-carbonyl)-N-((cis)-4-(4-fluorophenoxy)cyclohexyl)picolinamide] had an EC50 of under 500 nM.

As to `COc1ccc(C(=O)C2CCN(C(=O)c3ccc(C(=O)NCCOc4ccc(F)cc4)nc3)CC2)cc1` [Compound 305, N-(2-(4-fluorophenoxy)ethyl)-5-(4-(4-methoxybenzoyl)piperidine-1-carbonyl)picolinamide], the EC50 is under 500 nM.

As for `N#Cc1ccc(OC2CCN(C(=O)c3ccc(C(=O)NCCOc4ccc(F)cc4)nc3)CC2)cc1` [Compound 306, 5-(4-(4-cyanophenoxy)piperidine-1-carbonyl)-N-(2-(4-fluorophenoxy)ethyl)picolinamide], the EC50 was under 500 nM.

`N#Cc1ccc(CN2CCC(NC(=O)c3ccc(C(=O)N4CC(OCc5ccc(F)cc5)C4)cn3)CC2)cc1` [Compound 307, N-(1-(4-cyanobenzyl)piperidin-4-yl)-5-(3-(4-fluorobenzyloxy)azetidine-1-carbonyl)picolinamide] registered an EC50 of 500 to 1000 nM.

`O=C(NC1CCN(Cc2cc(F)cc(F)c2)CC1)c1ccc(C(=O)N2CC(OCc3ccc(F)cc3)C2)cn1` [Compound 308, N-(1-(3,5-difluorobenzyl)piperidin-4-yl)-5-(3-(4-fluorobenzyloxy)azetidine-1-carbonyl)picolinamide] came in with an EC50 of under 500 nM.

`COc1ccc(C(=O)C2CCN(C(=O)c3ccc(C(=O)NC4CCN(Cc5ccc(C#N)cc5)CC4)cn3)CC2)cc1` [Compound 309, N-(1-(4-cyanobenzyl)piperidin-4-yl)-6-(4-(4-methoxybenzoyl)piperidine-1-carbonyl)nicotinamide]: the 50% effective concentration (EC50) is under 500 nM.

In the case of `COc1ccc(C(=O)C2CCN(C(=O)c3ccc(C(=O)N[C@H]4CC[C@@H](Oc5ccc(F)cc5)CC4)nc3)CC2)cc1` [Compound 311, N-((cis)-4-(4-fluorophenoxy)cyclohexyl)-5-(4-(4-methoxybenzoyl)piperidine-1-carbonyl)picolinamide], the EC50 was under 500 nM.

`O=C(N[C@H]1CC[C@@H](Oc2ccc(F)cc2)CC1)c1ccc(C(=O)N2CCC(Oc3ccc(F)cc3)CC2)cn1` [Compound 312, N-((cis)-4-(4-fluorophenoxy)cyclohexyl)-5-(4-(4-fluorophenoxy)piperidine-1-carbonyl)picolinamide]: the EC50 is under 500 nM.

Compound `N#Cc1ccc(OC2CN(C(=O)c3ccc(C(=O)NC4CCN(Cc5cc(F)cc(F)c5)CC4)nc3)C2)cc1` [Compound 313, 5-(3-(4-cyanophenoxy)azetidine-1-carbonyl)-N-(1-(3,5-difluorobenzyl)piperidin-4-yl)picolinamide] gave an EC50 of under 500 nM.

`N#Cc1ccc(-c2nnc3n2CCN(C(=O)c2ccc(C(=O)NC4CCN(Cc5cc(F)cc(F)c5)CC4)nc2)C3)cc1` [Compound 314, 5-(3-(4-cyanophenyl)-5,6,7,8-tetrahydro-[1,2,4]triazolo[4,3-a]pyrazine-7-carbonyl)-N-(1-(3,5-difluorobenzyl)piperidin-4-yl)picolinamide] returned a 50% effective concentration (EC50) of over 10000 nM.

Regarding `COc1ccc(C(=O)C2CCN(C(=O)c3ccc(C(=O)NC4CCC(Oc5ccc(C#N)cc5)CC4)cn3)CC2)cc1` (stereo not shown) [Compound 315, N-((1s,4s)-4-(4-cyanophenoxy)cyclohexyl)-6-(4-(4-methoxybenzoyl)piperidine-1-carbonyl)nicotinamide], the EC50 was under 500 nM.

Compound `COc1ccc(C(=O)C2CCN(C(=O)c3ccc(C(=O)N[C@H]4CC[C@@H](Oc5ccc(F)cc5)CC4)cn3)CC2)cc1` [Compound 316, N-((cis)-4-(4-fluorophenoxy)cyclohexyl)-6-(4-(4-methoxybenzoyl)piperidine-1-carbonyl)nicotinamide] came in with a concentration giving a half-maximal response (EC50) of under 500 nM.

In the case of `COc1ccc(C(=O)C2CCN(C(=O)c3ccc(C(=O)NC4CCN(Cc5ccc(F)cc5)CC4)cn3)CC2)cc1` [Compound 317, N-(1-(4-fluorobenzyl)piperidin-4-yl)-6-(4-(4-methoxybenzoyl)piperidine-1-carbonyl)nicotinamide], the concentration giving a half-maximal response (EC50) was under 500 nM.

As to `COc1ccc(CN2CCC(NC(=O)c3ccc(C(=O)N4CCC(C(=O)c5ccc(OC)cc5)CC4)nc3)CC2)cc1` [Compound 318, 6-(4-(4-methoxybenzoyl)piperidine-1-carbonyl)-N-(1-(4-methoxybenzyl)piperidin-4-yl)nicotinamide], the concentration giving a half-maximal response (EC50) is under 500 nM.

In the case of `COc1ccc(CN2CCC(NC(=O)c3ccc(C(=O)N4CCC(Oc5ccc(C#N)cc5)CC4)nc3)CC2)cc1` [Compound 319, 6-(4-(4-cyanophenoxy)piperidine-1-carbonyl)-N-(1-(4-methoxybenzyl)piperidin-4-yl)nicotinamide], the 50% effective concentration (EC50) was under 500 nM.

Compound `N#Cc1ccc(OC2CCN(C(=O)c3ccc(C(=O)N[C@H]4CC[C@@H](Oc5ccc(C#N)cc5)CC4)cn3)CC2)cc1` [Compound 321, N-((cis)-4-(4-cyanophenoxy)cyclohexyl)-6-(4-(4-cyanophenoxy)piperidine-1-carbonyl)nicotinamide] showed a concentration giving a half-maximal response (EC50) of under 500 nM.
